Reference: patent publication US8389523B2, “Substituted quinoxaline and an agrochemical composition thereof” (Kumiai Chemical Industry Co., Ltd., priority 2007, dated 2013)

Assays:
Format in all cases: in vivo
Set-up in all cases: scale not given here
[1] = test system: Monochoria vaginalis (Burm. f.) Presl var. plantaginea (Roxb.) Solms-Laub.; assay: Herbicidal effects in paddy field soil treatment (Test Example 1); conditions: for Herbicidal effects index, Monochoria vaginalis (Burm. f.) Presl var. plantaginea (Roxb.) Solms-Laub.: paddy field soil treatment, 1000 g of the active ingredient per hectare, wettable powder added dropwise on water surface, 21st day after treatment; for herbicidal effect (index) on Monochoria vaginalis (Burm. f.) Presl var. plantaginea (Roxb.) Solms-Laub.: paddy field soil treatment (Test Example 1), criteria of Table 138
Summary of the method: (§1)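 Paddy soil pre-emergence test: seeds sown, flooded 3 cm; next day wettable powder in water applied dropwise to water surface, 1000 g a.i./ha; greenhouse; effect rated visually on scale at 21 d post-treatment.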

[2] = test system: Echinochloa oryzicola Vasing; assay: as above; conditions: for Herbicidal effects index, Echinochloa oryzicola Vasing: paddy field soil treatment, 1000 g of the active ingredient per hectare, wettable powder added dropwise on water surface, 21st day after treatment; for herbicidal effect (index) on Echinochloa oryzicola Vasing: paddy field soil treatment (Test Example 1), criteria of Table 138
Summary of the method: as §1

[3] = test system: Scirpus juncoides Roxb. var. ohwianus. T. Koyama; assay: as above; conditions: for Herbicidal effects index, Scirpus juncoides Roxb. var. ohwianus. T. Koyama: paddy field soil treatment, 1000 g of the active ingredient per hectare, wettable powder added dropwise on water surface, 21st day after treatment; for herbicidal effect (index) on Scirpus juncoides Roxb. var. ohwianus. T. Koyama: paddy field soil treatment (Test Example 1), criteria of Table 138
Summary of the method: as §1

[4] = test system: Abutilon theophrasti medicus; assay: Herbicidal effects in upland field foliar treatment (Test Example 3); conditions: criteria of Table 138; for herbicidal effect (index) on Abutilon theophrasti medicus: 1000 g active ingredient per hectare, 14th day after treatment; for herbicidal effects on Abutilon theophrasti medicus: 1000 g of the active ingredient per hectare, 14th day after the treatment, wettable powder
Summary of the method: (§2)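 Greenhouse pot test, upland soil; 2-wk-old plants sprayed from above with water-diluted wettable powder (1000 L/ha spray volume, 1000 g a.i./ha). Regrown in greenhouse; visual herbicidal score on day 14 post-treatment.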

Amaranthus viridis L. [5] = assay: as above; conditions: criteria of Table 138; for herbicidal effect (index) on Amaranthus viridis L.: 1000 g active ingredient per hectare, 14th day after treatment; for herbicidal effects on Amaranthus viridis L.: 1000 g of the active ingredient per hectare, 14th day after the treatment, wettable powder
Summary of the method: as §2

[6] = test system: Echinochloa crus-galli (L.) P. Beauv. var. crus-galli; assay: as above; conditions: criteria of Table 138; for herbicidal effect (index) on Echinochloa crus-galli (L.) P. Beauv. var. crus-galli: 1000 g active ingredient per hectare, 14th day after treatment; for herbicidal effects on Echinochloa crus-galli (L.) P. Beauv. var. crus-galli: 1000 g of the active ingredient per hectare, 14th day after the treatment, wettable powder
Summary of the method: as §2

[7] = test system: Abutilon theophrasti medicus; assay: Herbicidal effects in upland field soil treatment (Test Example 2); conditions: 1000 g active ingredient per hectare, 21st day after treatment, criteria of Table 138
Summary of the method: (§3)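 Seeds sown in upland soil and covered; surface sprayed with water-diluted wettable powder, 1000 g a.i./ha, spray volume 1000 L/ha. Greenhouse growth, visual herbicidal rating at day 21.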

Amaranthus viridis L. [8] = assay: as above; conditions: 1000 g active ingredient per hectare, 21st day after treatment, criteria of Table 138
Summary of the method: as §3

Row | SMILES | Herbicidal effects index, Monochoria vaginalis (Burm. f.) Presl var. plantaginea (Roxb.) Solms-Laub. [1] | Herbicidal effects index, Echinochloa oryzicola Vasing [2] | Herbicidal effects index, Scirpus juncoides Roxb. var. ohwianus. T. Koyama [3] | herbicidal effect (index) on Abutilon theophrasti medicus [4] | herbicidal effect (index) on Amaranthus viridis L. (Amaranthus viridis L. [5]) | herbicidal effect (index) on Echinochloa crus-galli (L.) P. Beauv. var. crus-galli [6] | herbicidal effect (index) on Abutilon theophrasti medicus [7] | herbicidal effect (index) on Amaranthus viridis L. (Amaranthus viridis L. [8]) | herbicidal effects on Abutilon theophrasti medicus [4] | herbicidal effects on Amaranthus viridis L. (Amaranthus viridis L. [5]) | herbicidal effects on Echinochloa crus-galli (L.) P. Beauv. var. crus-galli [6] | herbicidal effect (index) on Monochoria vaginalis (Burm. f.) Presl var. plantaginea (Roxb.) Solms-Laub. [1] | herbicidal effect (index) on Echinochloa oryzicola Vasing [2] | herbicidal effect (index) on Scirpus juncoides Roxb. var. ohwianus. T. Koyama [3]
1 | COc1ccc(-n2c(=O)c(C(=O)C3=C(O)CCCC3=O)nc3ccccc32)cn1 [I-189] | 5 | 5 | 5 | 5 | 5 | 4 | 5 | 5 | – | – | – | – | – | –
2 | CCc1ccc(-n2c(=O)c(C(=O)C3=C(O)CCCC3=O)nc3ccccc32)cc1 [II-24] | 5 | 5 | 5 | – | – | – | 5 | 5 | 4 | 5 | 5 | – | – | –
3 | N#Cc1ccc(-n2c(=O)c(C(=O)C3=C(O)CCCC3=O)nc3ccccc32)cc1 [II-137] | 5 | 5 | 5 | – | – | – | 5 | 5 | 5 | 5 | 5 | – | – | –
4 | O=C1CCCC(O)=C1C(=O)c1nc2cccnc2n(-c2ccc(C(F)(F)F)cc2)c1=O [IV-44] | 5 | 5 | 5 | – | – | – | 5 | 5 | 5 | 5 | 5 | – | – | –
5 | CC(C)n1c(=O)c(C(=O)C2=C(O)CCCC2=O)nc2ccccc21 [Compound I-13] | 5 | 5 | 5 | 5 | 5 | 5 | 5 | 5 | – | – | – | – | – | –
6 | COc1ccc2nc(C(=O)C3=C(O)CCCC3=O)c(=O)n(-c3ccccc3)c2c1 [II-252] | 5 | 5 | 5 | – | – | – | 5 | 5 | 5 | 5 | 5 | – | – | –
7 | Cc1cc(-n2c(=O)c(C(=O)C3=C(O)CCCC3=O)nc3ccccc32)no1 [I-145] | 5 | 5 | 5 | 5 | 5 | 5 | 5 | 5 | – | – | – | – | – | –
8 | COCCn1c(=O)c(C(=O)C2=C(O)CCCC2=O)nc2ccccc21 [Compound I-88] | 5 | 5 | 5 | 5 | 5 | 5 | 5 | 5 | – | – | – | – | – | –
9 | CCCCn1c(=O)c(C(=O)C2=C(O)CCCC2=O)nc2ccccc21 [Compound I-15] | 5 | 5 | 5 | 5 | 5 | 5 | 5 | 5 | – | – | – | – | – | –
10 | COc1cccc(-n2c(=O)c(C(=O)C3=C(O)CCCC3=O)nc3ccccc32)c1 [II-57] | 5 | 5 | 5 | – | – | – | 5 | 5 | 5 | 5 | 5 | – | – | –
11 | CSc1ccc(-n2c(=O)c(C(=O)C3=C(O)CCCC3=O)nc3ccccc32)cc1 [II-122] | 5 | 5 | 5 | – | – | – | 5 | 5 | 4 | 5 | 5 | – | – | –
12 | CC1(C)CC(=O)C(C(=O)c2cnc3ccccc3n2)=C(O)C1 [comparative compound C, reference compound] | – | – | – | – | – | – | 0 | 3 | 4 | 0 | 0 | 2 | 1 | 1
13 | COc1ccccc1-n1c(=O)c(C(=O)C2=C(O)CCCC2=O)nc2cccnc21 [IV-52] | – | – | – | – | – | – | 5 | 4 | 5 | 5 | 5 | 5 | 5 | 5
14 | O=C1CCCC(O)=C1C(=O)c1nc2cccnc2n(Cc2cccc(C(F)(F)F)c2)c1=O [III-118] | 5 | 5 | 5 | – | – | – | 5 | 5 | 5 | 5 | 5 | – | – | –
